Earlier results as cited in patent publication US20070281911A1, “Use of Adefovir or Tenofovir for Inhibiting Mmtv-Like Viruses Involved in Breast Cancer and Primary Biliary Cirrhosis” (GILEAD SCIENCES INC., priority 2004, published 2007).

Target: MMTV RT enzyme (Mouse mammary tumor virus, UniProt P03365)
Sequence (P03365 861-1437): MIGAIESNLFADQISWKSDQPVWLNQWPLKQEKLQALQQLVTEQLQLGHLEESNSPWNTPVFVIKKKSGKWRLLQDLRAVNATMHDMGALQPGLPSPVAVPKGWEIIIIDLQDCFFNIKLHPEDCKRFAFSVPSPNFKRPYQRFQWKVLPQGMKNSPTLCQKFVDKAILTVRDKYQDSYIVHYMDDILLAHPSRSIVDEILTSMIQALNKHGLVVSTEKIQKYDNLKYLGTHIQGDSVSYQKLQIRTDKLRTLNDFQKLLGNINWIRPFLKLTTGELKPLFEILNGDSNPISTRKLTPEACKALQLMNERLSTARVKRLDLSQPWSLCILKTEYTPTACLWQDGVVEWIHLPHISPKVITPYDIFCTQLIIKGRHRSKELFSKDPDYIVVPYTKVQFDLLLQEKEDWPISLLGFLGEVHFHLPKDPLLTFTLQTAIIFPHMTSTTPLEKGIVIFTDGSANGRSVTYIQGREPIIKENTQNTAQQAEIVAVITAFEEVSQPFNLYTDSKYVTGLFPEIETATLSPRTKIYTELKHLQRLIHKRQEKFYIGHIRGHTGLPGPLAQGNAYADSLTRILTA

For `Cc1cn([C@H]2C[C@H](N=[N+]=[N-])[C@@H](COP(=O)(O)OP(=O)(O)OP(=O)(O)O)O2)c(=O)[nH]c1=O` [AZTppp], the “direct inhibition of MMTV RT enzyme compared with HIV RT enzyme” value is given as “as efficiently as the HIV RT enzyme”.
